Data as given in patent publication US8835476B2, “Synthesis of novel antimicrobials” (priority 2005, dated 2014).

Key:
recombinant E. coli LpxA = molecular target: T1, recombinant E. coli LpxA (Escherichia coli, UniProt P0A722); assay: LpxA assay: acyl-UDP-GlcNAc formation from UDP-[3H]GlcNAc, TLC; assay type: biochemical; conditions: for inhibition at 5000 µM: 5 mM compound, FIG. 8
T1 construct: 6xHis (C); made in house; host or cells: E. coli BL21 (pET23b)
Excerpt: The lpxA gene was amplified from an E. coli genomic library and inserted into a pET23b vector using standard recombinant DNA methodology. The 5′ oligonucleotide for amplification of the LpxA open reading frame was 5′-[…]-3′ (SEQ ID NO. 1) and contains a BamHI restriction enzyme site upstream of the LpxA ATG start codon and the 3′ oligonucleotide was 5′-[…]-3′ (SEQ ID NO. 2) and contains a XhoI restriction enzyme site downstream of the final codon of the LpxA open reading frame. Primers were custom synthesized. The primers were designed such that digestion of the amplification product would result in addition of a C-terminal 6×-His tag in frame with the LpxA open reading frame. Specifically, E. coli genomic DNA was isolated and an amplification reaction was carried out as follows: 33 μl water, 5 μl 10× reaction buffer, 1.5 μl of 50 mM magnesium sulfate, 3 μl of 10 mM dNTPs, 3 μl of a 50 μM solution of the 5′ LpxA primer, 3 μl of a 50 μM solution of the 3′ LpxA primer, 0.5 μl of E. coli genomic DNA solution, and 1 μl of polymerase. The reaction conditions were as follows: 94° C. for 2 minutes; followed by 30 cycles of 94° C. for 30 seconds, 50° C. for 30 seconds, 68° C. for 1.5 minutes, followed by an extension at 68° C. for 7 minutes. The resulting LpxA product was separated from other DNA on a 0.8% agarose gel and isolated from the gel. The LpxA open reading frame was cloned into a topoisomerase I-activated vector and transformed into E. coli. […] The newly synthesized plasmid containing the BamHI- and XhoI-flanked LpxA open reading frame and plasmid pET23a were digested with BamHI and XhoI at 37° C. for 2 hours, DNA was separated by agarose gel electrophoresis, isolated from the gel, and ligated. Ligation reactions were transformed into chemically competent E. coli and plasmid DNA was isolated. Restriction mapping was performed to determine which plasmids contained the LpxA open reading frame. To remove the T7 epitope coding sequence from the 5′end of the LpxA open reading frame, the pET23a plasmid containing the LpxA open reading frame was digested with the restriction enzymes BamHI and XhoI and a pET23b plasmid was digested with BglII and XhoI, DNA was separated by agarose gel electrophoresis, isolated from the gel, and ligated. Ligation reactions were transformed into chemically competent E. coli and plasmid DNA was isolated. Restriction mapping was performed to assess plasmids containing the LpxA open reading frame.
A 5 ml culture of E. Coli BL21 cells expressing the LpxA-6×His plasmid was grown overnight at 37° C. in LB medium containing 50 μg/ml ampicillin and 34 μg/ml chloramphenicol, then subcultured into 500 ml of the same medium and grown at 37° C. until A600=0.6. LpxA expression was induced by addition of 0.5 mM IPTG for three hours. The cells were centrifuged at 7 000×g for 10 minutes at 4° C. and lysed using a mild, nonionic detergent. The soluble fraction containing LpxA was added to 1 ml of nickel affinity resin in a 15 ml Falcon tube; the resin was washed extensively with extraction/wash buffer (50 mM Na-phosphate (pH 7.0) and 300 mM NaCl) prior to use. This mixture was incubated on a rotating platform at low speed for 20 minutes at room temperature. The resin was centrifuged at 1000 rpm in a bench top centrifuge for 2 min, washed twice (10 min each) with 10 ml of extraction/wash buffer, resuspended in 10 ml of extraction/wash buffer, and transferred to a 10 ml polypropylene disposable protein purification column. The column was eluted with 5 ml of 50 mM Na-phosphate (pH 7.0) containing 300 mM NaCl and 150 mM imidazole, collected in 1 ml fractions. The eluate was analysed by SDS-PAGE and was visualised using a protein stain (FIG. 7 inset).
Recombinant Vibrio harveyi acyl carrier protein was prepared from a GST fusion protein as described previously (Flaman et al., 2001). […]

E. coli BL21 cells = assay: Inhibition of E. coli growth in liquid culture (OD 600 nm); assay type: cell-based; conditions: for growth inhibitory activity, E. coli liquid culture: only at the highest concentration tested (1 mM); for growth inhibitory activity, E. coli liquid culture / growth of E. coli in liquid culture: FIG. 11
Experimental: Compounds to be tested were dissolved in ethanol or DMSO and subsequently diluted into of Luria broth. The final concentration of ethanol (2%, v/v) or DMSO (1%, v/v) had minimal effect on growth rate. Culture tubes were subsequently inoculated with E. coli BL21 or D22 cells to an optical density (at 600 nm) of 0.01 and incubated on a rotary shaker at 37° C. The optical density at 600 nm of 100 μl samples was measured at indicated time points.

[1] = system: LPS synthesis in E. coli strain D22; assay: In vivo LPS synthesis: [3H]galactose incorporation into acid-precipitable material; assay type: cell-based; conditions: 0.1 mM, FIG. 10B
Experimental: LpxA catalyzes the first step in the synthesis of lipid A (the hydrophobic anchor of LPS), which is essential for the growth and pathogenesis of many gram-negative bacteria. The inhibition of LpxA activity would therefore result in decreased synthesis of LPS. To measure the synthesis of LPS in vivo, the incorporation of radiolabelled galactose into acid-precipitable material was determined. The E. coli strain used for these studies was D22 (obtained from the E. coli Genetic Stock Center), which contains a mutation in the LpxC gene (lpxC101; Normark et al., 1969, J Bacteriol 97, 1334). Strains harbouring this mutation have an increased susceptibility to antibiotics, in addition to producing approximately 30% less LPS (Grundstrom et al., 1980, J Bacteriol 144, 884.). Bacteria were grown in Luria broth to early-log phase, at which point, 500 μl was transferred to a culture tube containing 1 μl of [^3H]galactose (final concentration, 0.2 mM, 20 μCi/μmol) and mixed. Cultures were incubated at 30° C. for 75 minutes with shaking at 220 rpm. Incorporation was terminated by adding 400 μl of labelled culture to 44.4 μl of 100% trichloroacetic acid (TCA, 10% final concentration) in a 1.5 ml microcentrifuge tube. Tubes were vortexed, incubated on ice for 30 minutes, then centrifuged at 14 000 rpm for 5 minutes at room temperature. The pellet was rinsed twice with 1 ml of ice-cold 10% TCA, resuspended in 50 μl of formic acid, and transferred to a scintillation vial for counting.
Compounds to be tested were dissolved in DMSO and added to the bacterial culture prior to labelling with galactose, and LPS synthesis was determined as described previously. The final concentration of DMSO (1%, v/v) had minimal effect on LPS synthesis.

T1 sequence (P0A722 whole entry): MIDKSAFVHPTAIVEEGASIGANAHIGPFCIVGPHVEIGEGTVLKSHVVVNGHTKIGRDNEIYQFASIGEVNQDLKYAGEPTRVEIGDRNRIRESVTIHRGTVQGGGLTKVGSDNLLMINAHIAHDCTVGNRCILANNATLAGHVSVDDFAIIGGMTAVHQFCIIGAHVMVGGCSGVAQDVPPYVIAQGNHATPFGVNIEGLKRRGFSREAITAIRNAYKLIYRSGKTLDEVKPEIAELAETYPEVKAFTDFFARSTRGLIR

## COC(=O)c1cc(-c2nnn(C)n2)c(C(=O)OC)s1 [DNM-114, 3-(2-methyl-2H-tetrazol-5-yl)-thiophene-2,5-dicarboxylic acid dimethyl ester]
other
  melting point: 121 to 122 °C

## Cn1nnc(-c2cc(C(=O)O)sc2-c2ccc(F)cc2)n1 [DNM-123, 5-(4-fluorophenyl)-4-(2-methyl-2H-tetrazol-5-yl)thiophene-2-carboxylic acid]
Recombinant E. coli LpxA; 500 μM, FIG. 9
  inhibition at 500 µM: ~60%
Recombinant E. coli LpxA
  inhibition at 5000 µM: > 80%
E. coli BL21 cells
  growth inhibitory activity, E. coli liquid culture: Substantial growth inhibitory activity

## CCOC(=O)c1cc(-c2nnn[nH]2)c(-c2ccc(F)cc2)s1 [DNM-124, 5-(4-Fluoro-phenyl)-4-(1H-tetrazol-5-yl)-thiophene-2-carboxylic acid ethyl ester]
Recombinant E. coli LpxA
  inhibition at 5000 µM: > 80%
E. coli BL21 cells
  growth inhibitory activity, E. coli liquid culture: Substantial growth inhibitory activity

## CCOC(=O)c1cc(-c2nnn(C)n2)c(-c2ccc(F)cc2)s1 [DNM-125, ethyl 5-(4-fluorophenyl)-4-(2-methyl-2H-tetrazol-5-yl)thiophene-2-carboxylate]
other
  melting point: 108 to 110 °C

## Fc1ccc(-c2cc(-c3nnn[nH]3)c(-c3ccc(F)cc3)s2)cc1 [DNM-131, 5-(2,5-Bis(4-fluorophenyl)thiophen-3-yl)-1H-tetrazole]
Recombinant E. coli LpxA
  inhibition at 5000 µM: > 80%
Recombinant E. coli LpxA; concentrations above 500 μM, FIG. 9
  inhibition of LpxA activity: almost complete inhibition
[1]
  decrease of LPS synthesis: approximately 70%
E. coli BL21 cells; 10 μM
  growth of E. coli in liquid culture: partial inhibition
E. coli BL21 cells; 0.1 or 1 mM
  growth of E. coli in liquid culture: no growth

## Cn1nnc(-c2cc(-c3ccc(F)cc3)sc2-c2ccc(F)cc2)n1 [DNM-132, 5-(2,5-bis(4-fluorophenyl)thiophen-3-yl)-2-methyl-2H-tetrazole]
other
  melting point: 150 to 152 °C

## O=C(O)c1sc(-c2ccc(F)cc2)cc1-c1nnn[nH]1 [DNM-141, 5-(4-Fluoro-phenyl)-3-(1H-tetrazol-5-yl)-thiophene-2-carboxylic acid]
Recombinant E. coli LpxA
  inhibition at 5000 µM: > 80%
E. coli BL21 cells; concentrations tested in FIG. 11
  growth inhibitory effect, E. coli liquid culture: no apparent effect

## Cn1nnc(-c2cc(-c3ccc(F)cc3)sc2C(=O)O)n1 [DNM-142, 5-(4-Fluoro-phenyl)-3-(2-methyl-2H-tetrazol-5-yl)-thiophene-2-carboxylic acid]
Recombinant E. coli LpxA
  inhibition at 5000 µM: > 70%

## COC(=O)c1sc(-c2ccc(F)cc2)cc1-c1nnn(C)n1 [DNM-144, 5-(4-fluoro-phenyl)-3-(2-methyl-2H-tetrazol-5-yl)-thiophene-2-carboxylic acid methyl ester]
other
  melting point: 131.5 to 132.5 °C
